From BindingDB's records for doi:10.1128/aac.00917-07 (Umdnj-New Jersey Medical School, 2007)

Target: 1,3-beta-glucan synthase (Aspergillus fumigatus, UniProt P87204, S678P)
Assay: Inhibition of 1,3-beta-D-glucan synthase EMFR-S678P mutant from Aspergillus fumigatus assessed as incorporation of [3H]glucose

Chain of 1,3-beta-glucan synthase (P87204 entry or part of it S678P): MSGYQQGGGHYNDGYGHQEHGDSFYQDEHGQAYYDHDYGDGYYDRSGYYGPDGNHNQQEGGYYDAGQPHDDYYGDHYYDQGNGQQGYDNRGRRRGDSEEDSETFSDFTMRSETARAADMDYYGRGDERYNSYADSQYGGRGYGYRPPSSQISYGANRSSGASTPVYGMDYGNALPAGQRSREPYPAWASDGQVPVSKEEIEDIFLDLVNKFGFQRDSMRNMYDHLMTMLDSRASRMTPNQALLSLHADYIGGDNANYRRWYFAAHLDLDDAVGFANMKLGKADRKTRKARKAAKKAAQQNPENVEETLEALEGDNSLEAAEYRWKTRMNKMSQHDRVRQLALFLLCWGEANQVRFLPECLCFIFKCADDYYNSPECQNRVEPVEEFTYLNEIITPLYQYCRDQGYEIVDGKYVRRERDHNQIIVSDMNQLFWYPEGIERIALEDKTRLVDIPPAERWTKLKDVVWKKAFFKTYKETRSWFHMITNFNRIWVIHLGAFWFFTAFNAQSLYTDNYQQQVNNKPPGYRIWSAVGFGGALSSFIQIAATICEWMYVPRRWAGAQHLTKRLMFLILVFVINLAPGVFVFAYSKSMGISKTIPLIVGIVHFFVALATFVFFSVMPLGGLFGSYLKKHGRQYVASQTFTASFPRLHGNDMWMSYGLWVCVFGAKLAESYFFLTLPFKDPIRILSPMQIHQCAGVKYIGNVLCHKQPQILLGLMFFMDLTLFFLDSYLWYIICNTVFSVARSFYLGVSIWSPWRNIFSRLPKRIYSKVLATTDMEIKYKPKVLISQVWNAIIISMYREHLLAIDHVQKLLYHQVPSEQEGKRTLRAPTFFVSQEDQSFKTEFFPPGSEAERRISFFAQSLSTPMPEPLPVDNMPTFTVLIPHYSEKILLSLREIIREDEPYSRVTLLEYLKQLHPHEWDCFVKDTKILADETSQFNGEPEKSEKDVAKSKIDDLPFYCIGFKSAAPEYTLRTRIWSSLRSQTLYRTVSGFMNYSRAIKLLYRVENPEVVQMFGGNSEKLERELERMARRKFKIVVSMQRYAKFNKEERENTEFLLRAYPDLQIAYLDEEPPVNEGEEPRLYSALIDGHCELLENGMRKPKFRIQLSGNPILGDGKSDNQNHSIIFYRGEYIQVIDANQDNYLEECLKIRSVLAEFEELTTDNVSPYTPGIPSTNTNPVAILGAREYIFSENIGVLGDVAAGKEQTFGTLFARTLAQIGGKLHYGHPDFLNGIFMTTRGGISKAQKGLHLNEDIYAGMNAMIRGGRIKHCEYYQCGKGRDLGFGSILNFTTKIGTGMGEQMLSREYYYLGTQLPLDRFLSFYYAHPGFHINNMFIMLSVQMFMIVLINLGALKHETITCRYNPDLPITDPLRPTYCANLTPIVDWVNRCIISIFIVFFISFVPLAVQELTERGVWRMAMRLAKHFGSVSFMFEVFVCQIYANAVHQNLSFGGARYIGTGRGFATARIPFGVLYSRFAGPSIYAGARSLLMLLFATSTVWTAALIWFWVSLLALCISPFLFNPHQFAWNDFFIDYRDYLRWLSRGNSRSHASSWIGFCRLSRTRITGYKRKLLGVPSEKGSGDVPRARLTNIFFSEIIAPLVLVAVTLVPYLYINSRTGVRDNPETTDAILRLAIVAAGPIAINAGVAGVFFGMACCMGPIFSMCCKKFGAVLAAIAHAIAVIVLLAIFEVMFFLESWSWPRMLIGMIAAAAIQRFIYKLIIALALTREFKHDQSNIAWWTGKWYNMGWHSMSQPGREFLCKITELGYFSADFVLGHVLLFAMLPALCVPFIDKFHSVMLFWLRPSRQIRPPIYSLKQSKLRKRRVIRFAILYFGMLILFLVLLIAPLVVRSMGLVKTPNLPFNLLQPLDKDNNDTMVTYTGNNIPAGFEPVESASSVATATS

SMILES: CCC(C)CC(C)CCCCCCCCC(=O)N[C@H]1C[C@@H](O)[C@@H](NCCN)NC(=O)[C@@H]2[C@@H](O)CCN2C(=O)[C@H]([C@H](O)CCN)NC(=O)[C@H]([C@H](O)[C@@H](O)c2ccc(O)cc2)NC(=O)[C@@H]2C[C@@H](O)CN2C(=O)[C@H]([C@@H](C)O)NC1=O (stereo partly specified) [CHEBI:474180]
- IC50: 110 nM
